Measured values taken from US5491072A, “N-alkylacridan carboxyl derivatives useful for chemiluminescent detection” (Lumigen, Inc., priority 1993, dated 1996).

How the values were obtained:
horseradish peroxidase = biological target: T1, horseradish peroxidase (Armoracia rusticana, UniProt P00433); experiment: Comparison of compounds 1a-e at pH 8.9, time course and total intensity of chemiluminescence; type: biochemical; conditions: 0.01 mM acridan, 0.1M phosphate pH 8.9, 6.2 mM H2O2, 2.25 mM p-iodophenol, 1×10^-13 mol HRP
T1 sequence (P00433 31-338 limits assumed): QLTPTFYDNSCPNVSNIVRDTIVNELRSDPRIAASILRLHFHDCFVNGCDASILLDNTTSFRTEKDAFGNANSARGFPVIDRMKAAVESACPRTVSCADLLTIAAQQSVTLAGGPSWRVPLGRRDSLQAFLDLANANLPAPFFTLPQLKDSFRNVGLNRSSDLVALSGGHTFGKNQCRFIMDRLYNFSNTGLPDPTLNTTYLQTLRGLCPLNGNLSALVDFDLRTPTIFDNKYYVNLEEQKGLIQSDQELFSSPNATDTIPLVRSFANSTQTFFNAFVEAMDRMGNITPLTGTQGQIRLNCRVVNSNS
Method: (§1) The experiments in the following examples were performed using a Turner Designs TD-20e luminometer fitted with neutral density filter for light attenuation. Data collection, analysis and display were software controlled. Constant temperature was maintained by means of an external circulating water bath connected to the luminometer.
A 200 μL volume of a formulation containing 0.01 mM acridan compound 1a-e in 0.1M phosphate buffer, pH 8.9, […] (6.2 mM) H2 O2, 2.25 mM p-iodophenol, 0.5% (w/w) Tween 20 and 1 mM EDTA was reacted with 1×10^-13 mol of horseradish peroxidase. […] Compared below are the peak light intensity (Imax) in relative light units (RLU), the time to maximum light intensity (tmax) and total light output.

HRP = biological target: T2, HRP (Armoracia rusticana, UniProt P00433); experiment: Comparison of detection of HRP with luminol reagent and 1b reagent; type: biochemical, horseradish; conditions: corrected signal-to-background at 5 min, 37° C., comparing log (S-B)/B=0
T2 sequence (P00433 31-338 limits assumed): T1 sequence (P00433 31-338 limits assumed)
Method: as §1
Forty μL of a solution containing 1b (0.05 mM), p-iodophenol (2.25 mM), H2 O2 (0.2 mM), Tween 20 (0.5%), EDTA (1 mM) in 0.1M tris, pH 8.0 and forty μL of the commercial reagent (Amersham, Arlington Heights, Ill.) were incubated at 37° C. and reacted with varying amounts of HRP. FIG. 6 compares the corrected signal-to-background ratios at 5 min. […] Measuring light intensity at 15 min provides an additional reduction in detection limit with the reagent containing 1b, while the luminol reagent results are unchanged.

## CN1c2ccccc2C(C(=O)Oc2ccc(O)cc2)c2ccccc21 [Compound 1b, 4'-Hydroxyphenyl 10-methylacridan-9-carboxylate]
Horseradish peroxidase; 0.5% Tween 20, 1 mM EDTA
  I max (RLU), peak light intensity: 2047 RLU
Horseradish peroxidase
  I total (RLU), total light output: 2 × 10^6 RLU
  t max (min), time to maximum light intensity: 4.2 min
HRP
  sensitivity of detection of HRP compared to the luminol reagent: greater sensitivity of detection
